# Test results as given in PubChem BioAssay AID330 (DTP/NCI, 2004).
# Several values for one entry are separate records, joined by “and”; a condition that tells them apart may be missing. Equal values may be shown once. Inconclusive results and toxic doses are left out.
# System: P388 leukemia ip, CD2F1 mice, survival T/C
# Assay: NCI In Vivo Anticancer Drug Screen. Data for tumor model P388 Leukemia (intraperitoneal) in CD2F1 (CDF1) mice
# Details: endpoint: median survival time, higher = longer survival
# Method in brief: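 Mice carrying the transplanted tumor received test compound or vehicle. Survival was recorded in each group, and the value is the treated-group measurement divided by that of the vehicle-treated control group.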
# [1] = dose: 100.0 mg/kg/injection, schedule: Q01DX009 (ip), vehicle: saline
# [2] = dose: 100.0 mg/kg/injection, schedule: Q04DX003 (ip), vehicle: saline
# [3] = dose: 200.0 mg/kg/injection, schedule: Q01DX009 (ip), vehicle: saline
# [4] = dose: 200.0 mg/kg/injection, schedule: Q04DX003 (ip), vehicle: saline
# [5] = dose: 400.0 mg/kg/injection, schedule: Q04DX003 (ip), vehicle: saline
# [6] = dose: 25.0 mg/kg/injection, schedule: Q01DX009 (ip), vehicle: saline with Tween-80
# [7] = dose: 50.0 mg/kg/injection, schedule: Q01DX009 (ip), vehicle: saline with Tween-80
# [8] = dose: 100.0 mg/kg/injection, schedule: Q01DX009 (ip), vehicle: saline with Tween-80
# [9] = dose: 60.0 mg/kg/injection, schedule: Q01DX005 (ip), vehicle: saline with Tween-80
# [10] = dose: 120.0 mg/kg/injection, schedule: Q01DX005 (ip), vehicle: saline with Tween-80
# [11] = dose: 240.0 mg/kg/injection, schedule: Q01DX005 (ip), vehicle: saline with Tween-80
# [12] = dose: 12.5 mg/kg/injection, schedule: Q04DX003 (ip), vehicle: saline
# [13] = dose: 200.0 mg/kg/injection, schedule: Q01DX009 (ip), vehicle: saline with Tween-80
# [14] = dose: 400.0 mg/kg/injection, schedule: Q01DX009 (ip), vehicle: saline with Tween-80
# [15] = dose: 12.5 mg/kg/injection, schedule: Q01DX005 (ip), vehicle: Klucel (hydroxypropylcellulose) (HPC)
# [16] = dose: 25.0 mg/kg/injection, schedule: Q01DX005 (ip), vehicle: Klucel (hydroxypropylcellulose) (HPC)
# [17] = dose: 25.0 mg/kg/injection, schedule: Q04DX003 (ip), vehicle: saline
# [18] = dose: 50.0 mg/kg/injection, schedule: Q01DX009 (ip), vehicle: saline
# [19] = dose: 50.0 mg/kg/injection, schedule: Q04DX003 (ip), vehicle: saline
# [20] = dose: 12.5 mg/kg/injection, schedule: Q01DX009 (ip), vehicle: saline with Tween-80
smiles,measurement,setting,value
CCC/C(=N\NC(N)=NC)c1ccc2c(c1)Cc1ccccc1-2,T/C,"dose: 50.0 mg/kg/injection, schedule: Q04DX002 (ip), vehicle: saline with Tween-80",106 % of control
same,T/C,"dose: 100.0 mg/kg/injection, schedule: Q04DX002 (ip), vehicle: saline with Tween-80",102 % of control
same,T/C,"dose: 200.0 mg/kg/injection, schedule: Q04DX002 (ip), vehicle: saline with Tween-80",104 % of control
CC(C)=CCC1=C(O)c2ccccc2C(=O)C1=O,T/C,"dose: 75.0 mg/kg/injection, schedule: Q01DX010 (ip), vehicle: other",120 % of control
same,T/C,[1],118 % of control
same,T/C,"dose: 100.0 mg/kg/injection, schedule: Q01DX010 (ip), vehicle: other",110 % of control
same,T/C,[2],110 % of control
same,T/C,"dose: 125.0 mg/kg/injection, schedule: Q01DX010 (ip), vehicle: other",120 % of control
same,T/C,[3],118 % of control
same,T/C,[4],115 % of control
same,T/C,"dose: 400.0 mg/kg/injection, schedule: Q01DX009 (ip), vehicle: saline",95 % of control
same,T/C,[5],120 % of control
Cc1ccc(S(=O)(=O)N(Cl)Cl)cc1,T/C,"dose: 6.25 mg/kg/injection, schedule: Q01DX009 (ip), vehicle: Klucel (hydroxypropylcellulose) (HPC)",111 % of control
same,T/C,"dose: 12.5 mg/kg/injection, schedule: Q01DX009 (ip), vehicle: Klucel (hydroxypropylcellulose) (HPC)",99 % of control
same,T/C,"dose: 25.0 mg/kg/injection, schedule: Q01DX009 (ip), vehicle: Klucel (hydroxypropylcellulose) (HPC)",108 % of control
CCOC(=O)c1c[nH]c(=S)n(CCOC)c1=O,T/C,[6],92 % of control
same,T/C,[7],108 % of control
same,T/C,[8],115 % of control
C=CC1CC/C(=C/C)C(=O)O1 (configuration not stated),T/C,"dose: 50.0 mg/kg/injection, schedule: Q04DX003 (ip), vehicle: saline with Tween-80",103 % of control
same,T/C,"dose: 100.0 mg/kg/injection, schedule: Q04DX003 (ip), vehicle: saline with Tween-80",100 % of control
same,T/C,"dose: 200.0 mg/kg/injection, schedule: Q04DX003 (ip), vehicle: saline with Tween-80",100 % of control
CC(CN(C)C)C(/C=C/c1ccc(Cl)c(Cl)c1)=N\Nc1ccccc1 (configuration not stated),T/C,[9],87 % of control
same,T/C,[10],93 % of control
same,T/C,[11],87 % of control
C[N+]1=C2CCCCCC2=C(N)CC1,T/C,"dose: 3.13 mg/kg/injection, schedule: Q04DX003 (ip), vehicle: saline",100 % of control
same,T/C,"dose: 6.25 mg/kg/injection, schedule: Q04DX003 (ip), vehicle: saline",104 % of control
same,T/C,[12],100 % of control
CCCCCCCC/C=C\CCCCCCCCCCCC(=O)OC/C=C/COC(=O)c1ccccc1,T/C,"dose: 50.0 mg/kg/injection, schedule: Q01DX009 (ip), vehicle: Klucel (hydroxypropylcellulose) (HPC)",100 % of control
same,T/C,"dose: 100.0 mg/kg/injection, schedule: Q01DX009 (ip), vehicle: Klucel (hydroxypropylcellulose) (HPC)",95 % of control
same,T/C,"dose: 200.0 mg/kg/injection, schedule: Q01DX009 (ip), vehicle: Klucel (hydroxypropylcellulose) (HPC)",100 % of control
C[Si](C)(CCl)N[Si](C)(C)CCl,T/C,"dose: 50.0 mg/kg/injection, schedule: Q01DX009 (ip), vehicle: suspension in saline",100 % of control
same,T/C,[8],100 % of control
same,T/C,"dose: 100.0 mg/kg/injection, schedule: Q01DX009 (ip), vehicle: suspension in saline",98 % of control
same,T/C,[13],96 % of control
same,T/C,"dose: 200.0 mg/kg/injection, schedule: Q01DX009 (ip), vehicle: suspension in saline",105 % of control
same,T/C,[14],122 % of control
COc1cc2c3c(c1OC)C(=O)C[C@@H]1CCCN(CC2)[C@H]31,T/C,[15],99 % of control
same,T/C,[16],98 % of control
Nc1ccc(C(=O)CCCN2CCCCC2)cc1,T/C,"dose: 12.5 mg/kg/injection, schedule: Q01DX009 (ip), vehicle: saline",104 % of control
same,T/C,[12],91 % of control
same,T/C,"dose: 25.0 mg/kg/injection, schedule: Q01DX009 (ip), vehicle: saline",95 % of control
same,T/C,[17],95 % of control
same,T/C,[18],90 % of control
same,T/C,[19],91 % of control
N#Cc1ccc(N(O)C(=O)c2ccccc2)cc1,T/C,[20],99 % of control
same,T/C,[6],100 % of control
same,T/C,[7],99 % of control and 100 % of control
C=C1C(=O)OC2C1C(OC(=O)/C(C)=C/C)CC1(C)C(O)CCC(=C)C21 (configuration not stated),T/C,[15],106 % of control
same,T/C,[16],107 % of control
same,T/C,"dose: 50.0 mg/kg/injection, schedule: Q01DX005 (ip), vehicle: Klucel (hydroxypropylcellulose) (HPC)",114 % of control
same,T/C,"dose: 100.0 mg/kg/injection, schedule: Q01DX005 (ip), vehicle: Klucel (hydroxypropylcellulose) (HPC)",107 % of control
same,T/C,"dose: 200.0 mg/kg/injection, schedule: Q01DX005 (ip), vehicle: Klucel (hydroxypropylcellulose) (HPC)",98 % of control
CCOC(=S)NS(=O)(=O)c1ccccc1,T/C,"dose: 6.25 mg/kg/injection, schedule: Q01DX009 (ip), vehicle: saline with Tween-80",107 % of control
same,T/C,[20],102 % of control
same,T/C,[6],109 % of control
same,T/C,[7],116 % of control
CCN(CC)CCn1nc2n(c(=O)c1=O)CC(=O)N(C)c1ccc(Cl)cc1-2,T/C,[18],105 % of control
same,T/C,[1],105 % of control
same,T/C,[3],99 % of control
CSC(=S)N/N=C/c1nccc2ccccc12,T/C,"dose: 100.0 mg/kg/injection, schedule: Q01DX001 (ip), vehicle: saline with Tween-80",112 % of control
same,T/C,"dose: 200.0 mg/kg/injection, schedule: Q01DX001 (ip), vehicle: saline with Tween-80",108 % of control
same,T/C,"dose: 400.0 mg/kg/injection, schedule: Q01DX001 (ip), vehicle: saline with Tween-80",116 % of control
CC#Cc1ccc(-c2ccccc2)s1,T/C,"dose: 1.0 mg/kg/injection, schedule: Q01DX005 (ip), vehicle: Klucel + Tween-80",96 % of control
same,T/C,"dose: 2.0 mg/kg/injection, schedule: Q01DX005 (ip), vehicle: Klucel + Tween-80",98 % of control
same,T/C,"dose: 4.0 mg/kg/injection, schedule: Q01DX005 (ip), vehicle: Klucel + Tween-80",94 % of control
same,T/C,"dose: 8.0 mg/kg/injection, schedule: Q01DX005 (ip), vehicle: Klucel + Tween-80",93 % of control
COP(=S)(OC)Oc1cc(Cl)c(Cl)cc1Cl,T/C,[19],100 % of control
same,T/C,[2],102 % of control
same,T/C,[4],103 % of control
same,T/C,[5],102 % of control
C1CC[N-]CC1.C1CC[N-]CC1.N#C[S-].N#C[S-].[Cu],T/C,"dose: 1.25 mg/kg/injection, schedule: Q04DX003 (ip), vehicle: saline with Tween-80",100 % of control
same,T/C,"dose: 2.5 mg/kg/injection, schedule: Q04DX003 (ip), vehicle: saline with Tween-80",100 % of control
same,T/C,"dose: 5.0 mg/kg/injection, schedule: Q04DX003 (ip), vehicle: saline with Tween-80",90 % of control
same,T/C,"dose: 10.0 mg/kg/injection, schedule: Q04DX003 (ip), vehicle: saline with Tween-80",90 % of control
CC(C)[Si](C#CC[Si](C(C)C)(C(C)C)C(C)C)(C(C)C)C(C)C,T/C,[9],105 % of control
same,T/C,[10],98 % of control
same,T/C,[11],100 % of control
COc1cccc(OC)c1N(CCO)CCO,T/C,[7],101 % of control
same,T/C,[8],95 % of control
same,T/C,[13],106 % of control
O=C1CN(CCN2CCCCC2)CC(=O)N2CCCCN12,T/C,"dose: 50.0 mg/kg/injection, schedule: Q01DX005 (ip), vehicle: saline with Tween-80",102 % of control
same,T/C,"dose: 100.0 mg/kg/injection, schedule: Q01DX005 (ip), vehicle: saline with Tween-80",107 % of control
CO/N=C1\N=C(C)C(=N)N1c1ccccc1,T/C,[9],104 % of control
same,T/C,[10],99 % of control
same,T/C,[11],107 % of control
Cc1c2ccncc2c(CN(CCCl)CCCl)c2c3ccccc3n(C)c12,T/C,"dose: 20.0 mg/kg/injection, schedule: Q01DX005 (ip), vehicle: saline",150 % of control and 160 % of control
same,T/C,"dose: 50.0 mg/kg/injection, schedule: Q01DX005 (ip), vehicle: saline",118 % of control
same,T/C,"dose: 100.0 mg/kg/injection, schedule: Q01DX005 (ip), vehicle: saline",182 % of control
CCCCCC1(O)OC(=O)C(C)=C1C (configuration not stated),T/C,[12],100 % of control
same,T/C,[17],100 % of control
same,T/C,[19],122 % of control
COc1cc(OC)c(OC)cc1/C=C/c1ccc2ccccc2n1,T/C,[8],110 % of control
same,T/C,[13],110 % of control
same,T/C,[14],110 % of control
CC1(C)CC(OC(=O)Oc2c3ccccc3c3ccc4cccc5ccc2c3c54)CC(C)(C)N1O,T/C,[7],97 % of control
same,T/C,[8],97 % of control
same,T/C,[13],103 % of control
